{"source": "patent US6103888A", "about": "“Mammalian cationic proteins having lipopolysaccharide binding and anti-coagulant activity” (priority 1999, dated 2000)", "key": {"[1]": {"test_system": "thioglycolate elicited murine peritoneal exudate cells", "assay": "RNI generation by thioglycolate elicited peritoneal exudate cells", "assay_type": "cell-based", "details": "for RNI: RNIP 50 nm", "method": "From the sequence of the CAP18 cDNA, it was apparent that the putative N-terminal peptide of CAP18 was in fact an internal fragment of the CAP18 protein. We therefore tried to reconfirm the original protein sequence. Neutrophil-derived heparin bound cationic proteins were prepared as described above and applied to a C18 reverse phase HPLC (FIG. 1). We sequenced the major peaks. Peaks at fractions 14.5 and 15.2 correspond to defensins MCP1 and MCP2 (Territo et al. (1989) J. Clin. Invest. 84:2017-2019), respectively. Fraction 25.8 is macrophage related protein 14 (MRP14) (Odink et al. (1987) Nature 330:80-82). The fraction at 20.3 minutes corresponds to a fragment of CAP18 of approximately 4-5 kD. […] The murine macrophage cell line RAW 264.7 (obtained from ATCC) and thioglycollate-elicited murine peritoneal exudate cells are used to produce RNI. Cells are cultured at 1×10^6 /ml. in RPMI-1640 +2.5% FCS in 24 well plates in the presence or absence of different concentrations of LPS or murine rlFNγ. After 24 hr. incubation at 37° C., the cell free supernatant is collected and tested for the presence of RNI. Accumulation of nitrite in the medium is measured by a calorimetric assay based on the Griess reaction (Green et al. (1982) Anal. Biochem. 126:11) using sodium nitrite as standards. Sample (50 μl) is mixed with 50 μl of Griess reagent (1% sulfanilamide, 0.1% naphthalene diamine dihydrochloride, 2.5% H3 PO4) and after 10 min. at room temperature absorbance is read at 570 nm."}, "human monocytes": {"test_system": "human monocytes", "assay": "TNF release from LPS and IFNγ stimulated monocytes", "assay_type": "cell-based"}, "E. coli (HB101)": {"test_system": "E. coli (HB101)", "assay": "Bacterial proliferation, 3H-thymidine incorporation assay", "assay_type": "cell-based", "details": "for Percent inhibition of proliferation: E. coli (HB101)", "method": "(§1) Bacteria were grown in trypticase broth overnight.\n(§2) To corroborate the anti-bacterial activity shown in the CFU assays, inhibition of proliferation of bacteria was tested directly using a ^3 H-thymidine incorporation assay. […] In summary although there is some strain to strain variation in the IC50, all of the Gram-negativestrains tested in two different types of assays were sensitive to these anti-microbial peptides."}, "Klebsiella pneumoniae": {"test_system": "Klebsiella pneumoniae", "assay": "Bacterial proliferation, 3H-thymidine incorporation assay", "assay_type": "cell-based", "method": "as §1, §2"}, "Pseudomonas aeruginosa": {"test_system": "Pseudomonas aeruginosa", "assay": "Bacterial proliferation, 3H-thymidine incorporation assay", "assay_type": "cell-based", "method": "as §1, §2"}, "Pseudomonas apacia": {"test_system": "Pseudomonas apacia", "assay": "Bacterial proliferation, 3H-thymidine incorporation assay", "assay_type": "cell-based", "method": "as §1, §2"}, "[2]": {"test_system": "Staphylococcus aureus, coagulase positive", "assay": "Bacterial proliferation, 3H-thymidine incorporation assay", "assay_type": "cell-based", "method": "as §1, §2"}, "Streptococcus pneumoniae": {"test_system": "Streptococcus pneumoniae", "assay": "Bacterial proliferation, 3H-thymidine incorporation assay", "assay_type": "cell-based", "method": "as §1, §2"}, "Streptococcus pyogenes": {"test_system": "Streptococcus pyogenes", "assay": "Bacterial proliferation, 3H-thymidine incorporation assay", "assay_type": "cell-based", "method": "as §1, §2"}, "RAW 264.7 cells": {"test_system": "RAW 264.7 cells", "assay": "Reversal of LPS-induced inhibition of cell proliferation", "assay_type": "cell-based, murine", "details": "cultures containing 5 ng/ml of LPS", "method": "When LPS is added to RAW 264.7 cells it causes a dose-dependent inhibition of proliferation with differentiation of the cells into a macrophasge phenotype."}, "Human plasma [3]": {"test_system": "Human plasma", "assay": "Prothrombin time (PT)", "assay_type": "biochemical", "method": "Prothrombin time (PT). Human plasma (100 μl) was incubated with 100 μl of each peptide at 37° C. for 3 min., then 100 μl of tissue factor (250 μg/ml) CaCl2 was added and clotting time was measured."}, "Human plasma [4]": {"test_system": "Human plasma", "assay": "Partial thromboplastin time (PTT)", "assay_type": "biochemical", "details": "dose dependent", "method": "Partial thromboplastin time (PTT). Human plasma (100 μl) was incubated with each peptide (100 μl) at 37° C. for 3 min., then 100 μl of CaCl2 containing phospholipid was added and clotting time was measured."}, "prothrombin (factor II)": {"biological_target": "prothrombin (factor II) (Homo sapiens, UniProt P00734)", "assay": "Prothrombin activation by Echis Carinatus venom (ECV)", "assay_type": "biochemical", "method": "Prothrombin activation by Echis Carinatus venom (ECV). A reaction mixture of prothrombin (factor II) (0.1 unit/ml, 200 μl), ECV (1 unit/ml, 200 μl), various concentration of peptide (70 μl), 50 μl of 25 mM-CaCl2 and 180 μl of Tris buffer was incubated at 37° C. for 10 min. To 300 μl of the reaction mixture, 60 μl of 4 mM-thrombin substrate and 240 μl of buffer was added and further incubated for 15 min."}, "ddY mice": {"test_system": "ddY mice", "assay": "Tissue factor lethality model", "assay_type": "in vivo", "details": "for Survival (%): Tissue factor 1.0 mg/mouse IV", "method": "Tissue factor lethality model. Reference tissue factor (simplastin, 1 mg/mouse) was IV injected into ddY mice (male, 20-week-old, 38-45 g) incubated with or without peptide.\n^a Tissue factor (Simplastin, 10 mg/ml was mixed with equal volume of\nsynthetic peptide 100 μg/ml or 50 μg/ml and 0.2 ml of the mixture\ninjected IV. ddY mice (20 weeks, 38-45 gm)."}, "E. coli O9:K39 K- strain": {"test_system": "E. coli O9:K39 K- strain", "assay": "Antibacterial CFU assay"}, "E. coli O9:K39 K+ strain": {"test_system": "E. coli O9:K39 K+ strain", "assay": "Antibacterial CFU assay"}, "[5]": {"details": "read-out: IC50, anti-bacterial activity"}}, "data": [{"substance": "RNIP: rabbit reactive nitrogen inhibitory protein, amino acids 135-171 of SEQ ID NO:4; purified from granulocytes (Tables 1-3) or synthetic (#197) (GLRKRLRKFRNKIKEKLKKIGQKIQGLLPKLAPRTDY)", "values": [{"measurement": "RNI", "setting": "[1]; IFNγ 500 U/ml, without RNIP 4.0 ± 0.8", "value": 1.1, "unit": "µM"}, {"measurement": "IC50", "setting": "[1]; IFNγ stimulated, read-out: IC50 for inhibition of gamma interferon stimulated nitrogen radical release", "value": "< 50", "unit": "nM"}, {"measurement": "RNI", "setting": "[1]; LPS + IFNγ 1 ng + 500 U/ml, without RNIP 26 ± 0.6", "value": "14 ± 0.7", "unit": "µM"}, {"measurement": "TNF", "setting": "human monocytes; Human IFNγ (100 U), CAP (1:1), stimulus alone 2.0", "value": 0.27, "unit": "ng/mL"}, {"measurement": "TNF", "setting": "human monocytes; Human IFNγ (100 U), CAP (1:10), stimulus alone 2.0", "value": 0.35, "unit": "ng/mL"}, {"measurement": "TNF", "setting": "human monocytes; Human IFNγ (100 U), CAP (1:100), stimulus alone 2.0", "value": 0.35, "unit": "ng/mL"}, {"measurement": "TNF", "setting": "human monocytes; LPS (10 ng/ml), CAP (1:1), stimulus alone 1.0", "value": 0.12, "unit": "ng/mL"}, {"measurement": "TNF", "setting": "human monocytes; LPS (10 ng/ml), CAP (1:10), stimulus alone 1.0", "value": 0.34, "unit": "ng/mL"}, {"measurement": "TNF", "setting": "human monocytes; LPS (10 ng/ml), CAP (1:100), stimulus alone 1.0", "value": 0.23, "unit": "ng/mL"}, {"measurement": "Percent inhibition of proliferation", "setting": "E. coli (HB101); RNIP 0.6 μg/ml", "value": 81, "unit": "%"}, {"measurement": "Percent inhibition of proliferation", "setting": "E. coli (HB101); RNIP 1.25 μg/ml", "value": 88, "unit": "%"}, {"measurement": "Percent inhibition of proliferation", "setting": "E. coli (HB101); RNIP 2.5 μg/ml", "value": 99, "unit": "%"}, {"measurement": "Percent inhibition of proliferation", "setting": "E. coli (HB101); RNIP 5.0 μg/ml", "value": 99, "unit": "%"}, {"measurement": "Inhibition (%) of E. coli (HB101) proliferation", "setting": "E. coli (HB101); RNIP 2.5 μg/ml, FCS concentration 0 %", "value": "94 ± 10.3", "unit": "%"}, {"measurement": "Inhibition (%) of E. coli (HB101) proliferation", "setting": "E. coli (HB101); RNIP 2.5 μg/ml, FCS concentration 1 %", "value": "91 ± 10.9", "unit": "%"}, {"measurement": "Inhibition (%) of E. coli (HB101) proliferation", "setting": "E. coli (HB101); RNIP 2.5 μg/ml, FCS concentration 5 %", "value": "87 ± 3.1", "unit": "%"}, {"measurement": "Inhibition (%) of E. coli (HB101) proliferation", "setting": "E. coli (HB101); RNIP 2.5 μg/ml, FCS concentration 10 %", "value": "78 ± 5.5", "unit": "%"}, {"measurement": "Percent inhibition of proliferation", "setting": "Klebsiella pneumoniae; RNIP 0.6 μg/ml", "value": 4, "unit": "%"}, {"measurement": "Percent inhibition of proliferation", "setting": "Klebsiella pneumoniae; RNIP 1.25 μg/ml", "value": 14, "unit": "%"}, {"measurement": "Percent inhibition of proliferation", "setting": "Klebsiella pneumoniae; RNIP 2.5 μg/ml", "value": 17, "unit": "%"}, {"measurement": "Percent inhibition of proliferation", "setting": "Klebsiella pneumoniae; RNIP 5.0 μg/ml", "value": 60, "unit": "%"}, {"measurement": "Percent inhibition of proliferation", "setting": "Pseudomonas aeruginosa; RNIP 0.6 μg/ml", "value": 75, "unit": "%"}, {"measurement": "Percent inhibition of proliferation", "setting": "Pseudomonas aeruginosa; RNIP 1.25 μg/ml", "value": 82, "unit": "%"}, {"measurement": "Percent inhibition of proliferation", "setting": "Pseudomonas aeruginosa; RNIP 2.5 μg/ml", "value": 96, "unit": "%"}, {"measurement": "Percent inhibition of proliferation", "setting": "Pseudomonas aeruginosa; RNIP 5.0 μg/ml", "value": 99, "unit": "%"}, {"measurement": "Percent inhibition of proliferation", "setting": "Pseudomonas apacia; RNIP 0.6 μg/ml", "value": 81, "unit": "%"}, {"measurement": "Percent inhibition of proliferation", "setting": "Pseudomonas apacia; RNIP 1.25 μg/ml", "value": 80, "unit": "%"}, {"measurement": "Percent inhibition of proliferation", "setting": "Pseudomonas apacia; RNIP 2.5 μg/ml", "value": 99, "unit": "%"}, {"measurement": "Percent inhibition of proliferation", "setting": "Pseudomonas apacia; RNIP 5.0 μg/ml", "value": 99, "unit": "%"}, {"measurement": "Percent inhibition of proliferation", "setting": "[2]; RNIP 0.6 μg/ml", "value": 23, "unit": "%"}, {"measurement": "Percent inhibition of proliferation", "setting": "[2]; RNIP 1.25 μg/ml", "value": 57, "unit": "%"}, {"measurement": "Percent inhibition of proliferation", "setting": "[2]; RNIP 2.5 μg/ml", "value": 72, "unit": "%"}, {"measurement": "Percent inhibition of proliferation", "setting": "[2]; RNIP 5.0 μg/ml", "value": 83, "unit": "%"}, {"measurement": "Percent inhibition of proliferation", "setting": "Streptococcus pneumoniae; RNIP 0.6 μg/ml", "value": 31, "unit": "%"}, {"measurement": "Percent inhibition of proliferation", "setting": "Streptococcus pneumoniae; RNIP 1.25 μg/ml", "value": 47, "unit": "%"}, {"measurement": "Percent inhibition of proliferation", "setting": "Streptococcus pneumoniae; RNIP 2.5 μg/ml", "value": 68, "unit": "%"}, {"measurement": "Percent inhibition of proliferation", "setting": "Streptococcus pneumoniae; RNIP 5.0 μg/ml", "value": 93, "unit": "%"}, {"measurement": "Percent inhibition of proliferation", "setting": "Streptococcus pyogenes; RNIP 0.6 μg/ml", "value": 74, "unit": "%"}, {"measurement": "Percent inhibition of proliferation", "setting": "Streptococcus pyogenes; RNIP 1.25 μg/ml", "value": 79, "unit": "%"}, {"measurement": "Percent inhibition of proliferation", "setting": "Streptococcus pyogenes; RNIP 2.5 μg/ml", "value": 90, "unit": "%"}, {"measurement": "Percent inhibition of proliferation", "setting": "Streptococcus pyogenes; RNIP 5.0 μg/ml", "value": 96, "unit": "%"}, {"measurement": "effect on LPS-induced inhibition of RAW 264.7 cell proliferation", "setting": "RAW 264.7 cells", "value": "reverses the inhibition of proliferation"}, {"measurement": "inhibition of the prothrombin time (PT), in words", "setting": "Human plasma [3]", "value": "inhibited"}, {"measurement": "inhibition of the partial thromboplastin time (PTT), in words", "setting": "Human plasma [4]", "value": "inhibited"}, {"measurement": "inhibition of Echis carinatus venom activation of purified factor II to IIa (in words)", "setting": "prothrombin (factor II)", "value": "inhibited"}, {"measurement": "Survival (%)", "setting": "ddY mice; Peptide #197 5 μg/mouse", "value": 43, "unit": "%"}, {"measurement": "Survival (%)", "setting": "ddY mice; Peptide #197 10 μg/mouse, p < 0.05 vs tissue factor control", "value": 57, "unit": "%"}, {"measurement": "reduction of mortality", "setting": "ddY mice; tissue factor IV (Simplastin, 1 mg/mouse)", "value": 57, "unit": "%"}, {"measurement": "IC50, anti-bacterial activity", "setting": "E. coli O9:K39 K- strain", "value": 0.68, "unit": "µg/mL"}, {"measurement": "IC50", "setting": "E. coli O9:K39 K- strain; [5]", "value": 110, "unit": "nM"}, {"measurement": "IC50, anti-bacterial activity", "setting": "E. coli O9:K39 K+ strain", "value": 0.14, "unit": "µg/mL"}, {"measurement": "IC50", "setting": "E. coli O9:K39 K+ strain; [5]", "value": 20, "unit": "nM"}]}]}
